Source: US20140220680A1, “XENO-FREE AND A FEEDER FREE SELF-RENEWAL EXTRACELLULAR MATRIX FOR LONG-TERM MAINTENANCE OF UNDIFFERENTIATED HUMAN PLURIPOTENT STEM CELLS AND METHOD OF SYNTHESIZING THE SAME” (ROYAN RESEARCH, priority 2013, published 2014)

Experiments:
[1] = molecular target: Rho-associated Coiled Kinase (ROCK); conditions: stated with the concentration used; no test described; cited from earlier work
Royan H5 hESCs = assay: Plating efficiency (PE) of hESC clumps on coated plates, day 7; format: cell-based, human
Experimental: The Matrigel (MG) was used as a positive control in all experiments. In the first phase, with respect to table 1, the Royan H5 cell line was cultured in CM coated plates (six-well, TPP, 92006). The CM was prepared by either 24 h or 72 h incubation of neurobasal medium (Invitrogen, 21103049) supplemented with L-Gln, β-ME, NEAAs and ITS on human dermal fibroblast (HDFs) feeder layers. The HDFs were inactivated by mitomycin C for 2 h. The mitomycin C was used with a concentration of 10 μg/ml (Sigma-Aldrich, M0503). The feeder cells were cultured at high densities and at low densities in 25 cm^2 T flasks (TPP, 90025) in 4 ml of conditioned medium (160 μl/cm^2). The high density comprised of 50000 cells/cm^2 and the low density comprised of 5000 cells/cm^2. The plates were exposed to CM for either 5 min or 150 min while coating. […]
The plating efficiency (PE) and grading morphology were conducted in nine replications. […] Results were expressed as mean±standard deviation (SD). […] The PE (based on the ratio of undifferentiated […] colonies formed per initially seeded hESCs and hiPSCs clumps) was calculated under phase contrast inverted microscope (CKX 41, Olympus). The cloning efficiency (based on the ratio of ALP-positive colonies formed per initially seeded hESCs and hiPSCs single cells) was calculated by ImageJ software version 1.4. […]

Y-27632 dihydrochloride monohydrate
EC50 [1]: 800 nM | plating efficiency increase (Royan H5 hESCs; ROCK inhibitor in MG compared to ROCK inhibitor in culture medium only): 1.5 to 2 fold | plating and cloning efficiency (Royan H5 hESCs; ROCKi added to ECM (MG) vs added to medium): increased plating and cloning efficiency
